In patent US9738673B1, “Ferrocene derivative, preparation method and use thereof” (XIAMEN INSTITUTE OF RARE EARTH MATERIALS, priority 2016, dated 2017):

What was measured:
[1] = system: breast cancer cell line MCF-7; assay: In vitro anticancer activity MTT assay, MCF-7; format: cell-based, human; conditions: 48 h, MCF-7 cells
Description: (§1) Using a wavelength-tunable microplate reader absorbance value (A595) was measured at 595 nm. Inhibitory ratio was calculated with the following formula: […]
(§2) wherein, IC50 values were calculated using the GraphPad Prism 5 software.

[2] = system: human lung cancer cell line A549; assay: In vitro anticancer activity MTT assay, A549; format: cell-based; conditions: 48 h, A549 cells
Description: as §1, §2

[3] = system: colorectal cancer cell line HCT-116; assay: In vitro anticancer activity MTT assay, HCT116; format: cell-based, human; conditions: 48 h, HCT116 cells
Description: as §1, §2

| IC50 [1] | IC50 [2] | IC50 [3] | Compound |
| --- | --- | --- | --- |
| 990 µM | 252 µM | – | O=C(OCc1cc(-c2ccccc2)no1)[c-]1cccc1.O=C(OCc1cc(-c2ccccc2)no1)[c-]1cccc1.[Fe+2] [YJP-1] |
| 136 µM | 198 µM | 220 µM | Cc1ccc(-c2cc(COC(=O)[c-]3cccc3)on2)cc1.Cc1ccc(-c2cc(COC(=O)[c-]3cccc3)on2)cc1.[Fe+2] [YJP-2] |
| 86.8 µM | – | – | CCc1ccc(-c2cc(COC(=O)[c-]3cccc3)on2)cc1.CCc1ccc(-c2cc(COC(=O)[c-]3cccc3)on2)cc1.[Fe+2] [YJP-3] |
| 150 µM | 220 µM | 2180 µM | CC(C)(C)c1ccc(-c2cc(COC(=O)[c-]3cccc3)on2)cc1.CC(C)(C)c1ccc(-c2cc(COC(=O)[c-]3cccc3)on2)cc1.[Fe+2] [YJP-4] |
| 142 µM | 189 µM | – | Cc1cc(C)c(-c2cc(COC(=O)[c-]3cccc3)on2)c(C)c1.Cc1cc(C)c(-c2cc(COC(=O)[c-]3cccc3)on2)c(C)c1.[Fe+2] [YJP-5] |
| 182 µM | – | – | COc1ccc(-c2cc(COC(=O)[c-]3cccc3)on2)cc1.COc1ccc(-c2cc(COC(=O)[c-]3cccc3)on2)cc1.[Fe+2] [YJP-6] |
| 157 µM | 868 µM | – | COc1ccccc1-c1cc(COC(=O)[c-]2cccc2)on1.COc1ccccc1-c1cc(COC(=O)[c-]2cccc2)on1.[Fe+2] [YJP-7] |
| 138 µM | 142 µM | 236 µM | COc1cccc(-c2cc(COC(=O)[c-]3cccc3)on2)c1.COc1cccc(-c2cc(COC(=O)[c-]3cccc3)on2)c1.[Fe+2] [YJP-8] |
| 133 µM | – | – | O=C(OCc1cc(-c2ccc(C(F)(F)F)cc2)no1)[c-]1cccc1.O=C(OCc1cc(-c2ccc(C(F)(F)F)cc2)no1)[c-]1cccc1.[Fe+2] [YJP-9] |
| 138 µM | 2860 µM | – | O=C(OCc1cc(-c2ccc(F)cc2)no1)[c-]1cccc1.O=C(OCc1cc(-c2ccc(F)cc2)no1)[c-]1cccc1.[Fe+2] [YJP-11] |
| 159 µM | 168 µM | 149 µM | O=C(OCc1cc(-c2ccccc2F)no1)[c-]1cccc1.O=C(OCc1cc(-c2ccccc2F)no1)[c-]1cccc1.[Fe+2] [YJP-12] |
| 169 µM | 690 µM | 486 µM | O=C(OCc1cc(-c2ccc(Cl)cc2)no1)[c-]1cccc1.O=C(OCc1cc(-c2ccc(Cl)cc2)no1)[c-]1cccc1.[Fe+2] [YJP-13] |
| 172 µM | 450 µM | 228 µM | O=C(OCc1cc(-c2ccccc2Cl)no1)[c-]1cccc1.O=C(OCc1cc(-c2ccccc2Cl)no1)[c-]1cccc1.[Fe+2] [YJP-14] |
| 190 µM | 222 µM | 234 µM | O=C(OCc1cc(-c2ccc(Cl)cc2Cl)no1)[c-]1cccc1.O=C(OCc1cc(-c2ccc(Cl)cc2Cl)no1)[c-]1cccc1.[Fe+2] [YJP-15] |
| 156 µM | 251 µM | 63.9 µM | O=C(OCc1cc(-c2ccc(Br)cc2)no1)[c-]1cccc1.O=C(OCc1cc(-c2ccc(Br)cc2)no1)[c-]1cccc1.[Fe+2] [YJP-16] |
| 178 µM | 530 µM | 157 µM | O=C(OCc1cc(-c2ccc([N+](=O)[O-])cc2)no1)[c-]1cccc1.O=C(OCc1cc(-c2ccc([N+](=O)[O-])cc2)no1)[c-]1cccc1.[Fe+2] [YJP-19] |
